Earlier results, collected in patent US10369157B1 (priority 2018, dated 2019).

Experiments:
[1] = test system: adrenergic alpha-2 receptors
rats = details: rat, in vivo

Clc1cccc(Cl)c1NC1=NCCN1 [Clonidine, N-(2,6-dichlorophenyl)-4,5-dihydro-1H-imidazol-2-amine]
Effect on pulse rate in treated patients (patients; most patients): decrease in pulse rate
Absorption by the human body (in vivo): well absorbed

Cc1cccc([C@H](C)c2cnc[nH]2)c1C [Dexmedotomidine, 5-[(1S)-1-(2,3-dimethylphenyl)ethyl]-1H-imidazole]
Affinity towards adrenergic alpha-2 receptors compared with Clonidine [1]: increased affinity

CCOC(=O)C1(c2ccccc2)CCN(C)CC1 [pethidine]
Minimum ratio of DL50 to DE50 (rats): 4.6

Oc1cc(Cl)c(NC2=NCCN2)c(Cl)c1 [p-hydroxyclonidine]
Pharmacological activity of the major metabolite (patients; human, in vivo): pharmacologically inactive

OCc1ncc2n1-c1ccc(Cl)cc1C(c1ccccc1F)=NC2 [alpha-hydroxymidazolam]
Contribution to the effects of the sleep inducing agent (patients; intravenous administration): approximately 10%
Elimination half-life (metabolite): < 1 h
Plasma concentrations relative to the parent compound (metabolite of the sleep inducing agent): approximately 12%

CN1CC[C@]23c4c5ccc(O)c4O[C@H]2[C@@H](O)C=C[C@H]3[C@H]1C5 [morphine]
Minimum ratio of DL50 to DE50 (rats): 69.5

CNC1(c2ccccc2Cl)CCCCC1=O (centres unmarked) [Ketamine, 2-(2-chlorophenyl)-2-(methylamino)cyclohexan-1-one]
Clinical effects observed on patients following administration (patients; human, in vivo): increased blood pressure, increased muscle tone (may resemble catatonia), opening of the eyes (usually accompanied by nystagmus), and increased myocardial oxygen consumption
Dose recovered through excreted feces (studies in humans): approximately 3%
Dose recovered through urine (studies in humans): approximately 91%

Cc1ncc2n1-c1ccc(Cl)cc1C(c1ccccc1F)=NC2 [Midazolam, 8-chloro-6-(2-fluorophenyl)-1-methyl-4H-imidazo[1,5-a][1,4]benzodiazepine]
Passage through the placenta into fetal circulation (humans): slowly pass through the placenta
Presence in human milk (humans): small amounts
